One test concerns OVCAR3 H2B-GFP cells. The test is described as follows: In vitro platinum-sensitive relapse model, live cell number by time-lapse imaging. Particulars: six days of treatment, FIG. 1C carboplatin 6.25 μM, FIG. 1D cisplatin 50 μM. It is filed as cell-based. The text has this:
FIGS. 1A-1E show the in vitro modeling of non-inherited drug resistance. […] FIGS. 1B-1E show relapse dynamics. Length of drug treatments are indicated as red shaded areas within the graphs. […] While much effort has been focused on experimental models to study the emergence of platinum-resistance (Cunnea & Stronach, Front Oncol 4:81 (2014)), little attention has been given to the development of robust methods to model platinum-sensitive relapse. As the clinical classification of relapse is based both on the effectiveness of the treatment and the time to recurrence, the present study aimed to establish a system that can capture both these aspects. Analogous to the CA125 levels that are used to monitor disease progression in patients, direct measurement of cell number was used to monitor response in vitro. To this end, an OVCAR3 H2B-GFP cell line was generated. OVCAR3 is a commonly used HGSOC model and the H2B-GFP allows the easy quantification of the number of live cells during the course of drug treatment. […] This response was quantified based on time-lapse images and a striking similarity was found between the pattern of platinum-sensitive relapse observed in patients (FIG. 1B), as measured by CA125 levels, and the pattern observed in vitro in this study (FIG. 1C-D). […]

Test [1] deals with Watermelon-transduced PC-9 cells. Description: Sensitivity of Watermelon-transduced PC-9 cells to EGFR-TKIs, number of mCherry objects. It is filed as cell-based. The note with it: varying concentrations (FIGS. 6B and 6C). An excerpt:
FIGS. 6A-6D show the modeling of non-inherited drug resistance of PC-9 cells to EGFR tyrosine kinase inhibitors (EGFR-TKI).

In the case of `N.N.O=C([O-])C1(C(=O)[O-])CCC1.[Pt+2]` [carboplatin], in the test on OVCAR3 H2B-GFP cells, the “response of cells to platinum treatment (number of live cells)” value is reported as “the majority of cells died”.
Still for that read-out and setting: the result for `N.N.[Cl][Pt][Cl]` [cisplatin] reads “the majority of cells died”.
Consider `C=CC(=O)Nc1cc(Nc2nccc(-c3cn(C)c4ccccc34)n2)c(OC)cc1N(C)CCN(C)C` [osimertinib], for which the “sensitivity of cells to EGFR-TKI (number of mCherry objects)” value in test [1] is “sensitive”.
